Test results taken from US20230390265A1, “IRAK4 Inhibitors and Topical Uses Thereof” (Dermira, Inc., priority 2020, published 2023).
Entries after “also recorded” stand apart in the source; their conditions may differ.

System: TNFα protein expression
Assay: Skin resident immune cell assay (sRICA), LPS-stimulated human skin, TNFα protein
Type: cell-based
Conditions: positive control, applied topically
Description: The anti-inflammatory activity of the IRAK4/TrkA inhibitors was determined in a skin resident immune cell assay (sRICA). In this model, human surgical skin waste was cultured in a transwell system, with the dermis in contact with cell culture media and the stratum corneum exposed to air. To perform the assay, each human skin sample was defatted and dermatomed to 750 μm. Next, 8 mm punch biopsies were obtained and placed in a membrane transwell. The biopsies were prepared with a barrier ring to contain the formulation and prevent leakage of the formulation. The transwells were inserted into culture wells with complete media, and a cocktail of cytokines and antibodies and/or inflammatory stimuli were added to promote skin resident immune cell polarization and/or elicitation of a specific inflammatory response. The transwells were treated with LPS as a positive control, a vehicle as a negative control, and various dual IRAK/TrkA inhibitors. TNFα protein expression was measured and the mean TNFα protein level in the LPS treated samples was set to 100%.
The Compounds were formulated at 80% saturated solubility. […]
Except for the 0.5% Compound 1/NAG6 formulations, all Round 2 formulations were manufactured at 80% saturation. […] Conditioned cell media was collected and assessed for expression of inflammatory proteins after 48 hours of exposure to LPS stimulation.

## CCC(=O)O[C@]1(C(=O)CCl)[C@@H](C)C[C@H]2[C@@H]3CCC4=CC(=O)C=C[C@]4(C)[C@@]3(F)[C@@H](O)C[C@@]21C [Clobetasol]
  Effect on LPS-induced TNFα production / inflammation: significantly reduced inflammation back to baseline levels; also recorded: completely inhibited TNFα induction
